The values that follow come from patent publication US20260347364A1, “PYRAZOLO[4,3-F]QUINAZOLINE DERIVATIVES AS MODULATORS OF G12D MUTANT KRAS USEFUL FOR THE TREATMENT OF CANCER” (JAZZ PHARMACEUTICALS IRELAND LTD., priority 2023, published 2026).

In one test the target is T1, KRAS G12D (Homo sapiens, UniProt P01116, G12D).
T1 construct: aa1-188 KRAS WT, HRAS WT, NRAS WT, or KRAS containing the G12D
In words: HTRF nucleotide exchange assay, KRAS G12D. In kind it is biochemical. The following applies: class symbols; for IC50: HTRF nucleotide exchange assay (NEA). The method, then: (§1) HTRF Nucleotide Exchange Assay Method
(§2) The capacity of compounds to bind KRAS G12D, other KRAS mutants and wildtype RAS isoforms was quantified using a HTRF nucleotide exchange assay. Recombinant human RAS protein (2 nM; aa1-188 KRAS WT, HRAS WT, NRAS WT, or KRAS containing the G12D, G13D or Q61H amino acid substitutions, or 4 nM KRAS; aa1-188 containing the G12V, G12C, G12A or G12S amino acid substitution, an N-terminal 6× His-tag and leader sequence), and 2 nM Europium-labeled anti-6× His antibody were mixed in assay buffer (10 mM HEPES pH 7.3, 150 mM NaCl, 5 mM MgCl2, 0.05% BSA, 0.0025% NP-40 and 100 mM KF) with various concentrations of compound in a 384-well plate and a volume of 5 μL. After a 60-minute incubation at room temperature, 5 μl of 200 nM EDA-GTP-DY647P1 (diluted in assay buffer) was added to the plate. Following 30-minute incubation at room temperature, time-resolved fluorescence was measured on a PerkinElmer Envision plate reader. DMSO (0.3%) and unlabeled GDP (1 μM) or equivalent tool compound were used to generate the Max and Min assay signals, respectively. Data was analysed using a four-parameter logistic model to calculate IC50 values, with at least two independent replicates were performed for each compound. The results are presented as IC50s in Table 29 where “A” corresponds to an IC50 ≤10 nM, “B” to an IC50 >10 nM up to 100 nM, “C” is >100 nM up to 10 μM, “D” represents <49% inhibition at 10 μM and ND=not determined: […]

The target in a further test is T2, KRAS WT (Homo sapiens, UniProt P01116).
T2 construct: aa1-188 KRAS WT
The test can be described thus: HTRF nucleotide exchange assay, KRAS WT. As to conditions: class symbols; for IC50: HTRF nucleotide exchange assay (NEA). It counts as biochemical. Here is the method:
as §1, §2
(In general: Time-resolved FRET reads energy transfer from a long-lived donor to a nearby acceptor.)

A word on the IC50: it is the point on the concentration scale where inhibition reaches its midpoint. Take `CCc1c(F)ccc2cc(O)cc(-c3c(C)c4nc(OC[C@]5(C)CCCN5)nc(N5CCC[C@@](C)(O)C5)c4c4cn(C)nc34)c12` (mixture of isomers) [Example 211, (3R)-1-[4-(8-ethyl-7-fluoro-3-hydroxy-1-naphthyl)-2,5-dimethyl-7-[[rac-(2S)-2-methylpyrrolidin-2-yl]methoxy]pyrazolo[4,3-f]quinazolin-9-yl]-3-methyl-piperidin-3-ol]: the IC50 at KRAS G12D and on KRAS WT was no more than 10 nM throughout. Consider `CCc1c(F)ccc2cc(O)cc(-c3cc4nc(O[C@@H](C)[C@@H]5CCCN5C)nc(N5CCCn6nc(C(=O)N(C)C)cc6C5)c4c4cn(C)nc34)c12` (racemic) [Example 54, 5-[4-(8-ethyl-7-fluoro-3-hydroxy-1-naphthyl)-2-methyl-7-[rac-(1S)-1-[rac-(2S)-1-methylpyrrolidin-2-yl]ethoxy]pyrazolo[4,3-f]quinazolin-9-yl]-N,N-dimethyl-4,6,7,8-tetrahydropyrazolo[1,5-a][1,4]diazepine-2-carboxamide], for which the IC50 against KRAS G12D and against KRAS WT was 100 to 10000 nM throughout. As to `CN(C)C(=O)c1cc2n(n1)CCCN(c1nc(OC[C@@]34CCCN3C[C@H](F)C4)nc3cc(-c4cc(O)ccc4C(F)(F)F)c4nn(C)cc4c13)C2` (racemic) [Example 64, 5-[4-[5-hydroxy-2-(trifluoromethyl)phenyl]-2-methyl-7-[[rac-(2R,8S)-2-fluoro-1,2,3,5,6,7-hexahydropyrrolizin-8-yl]methoxy]pyrazolo[4,3-f]quinazolin-9-yl]-N,N-dimethyl-4,6,7,8-tetrahydropyrazolo[1,5-a][1,4]diazepine-2-carboxamide], the IC50 at KRAS G12D was in the range of 10 to 100 nM; against KRAS WT, 100 to 10000 nM. On the same counts, the results for `CCc1c(F)ccc2cc(O)cc(-c3cc4nc(OCC5(C)C[C@@H](O)CN5C)nc(N5CCCn6nc(C(=O)N(C)C)cc6C5)c4c4cn(C)nc34)c12` (mixture of isomers) [Example 68, 5-[4-(8-ethyl-7-fluoro-3-hydroxy-1-naphthyl)-2-methyl-7-[rac-(4R)-4-hydroxy-1,2-dimethyl-pyrrolidin-2-yl]methoxy]pyrazolo[4,3-f]quinazolin-9-yl]-N,N-dimethyl-4,6,7,8-tetrahydropyrazolo[1,5-a][1,4]diazepine-2-carboxamide] are no more than 10 nM and no more than 10 nM.

In the case of `CCc1c(F)ccc2cc(O)cc(-c3cc4nc(OC[C@@]56CCCN5C[C@H](F)C6)nc(N5CCC(O)C5)c4c4cn(C)nc34)c12` (mixture of isomers) [Example 117, 1-[4-(8-ethyl-7-fluoro-3-hydroxy-1-naphthyl)-2-methyl-7-[[rac-(2R,8S)-2-fluoro-1,2,3,5,6,7-hexahydropyrrolizin-8-yl]methoxy]pyrazolo[4,3-f]quinazolin-9-yl]pyrrolidin-3-ol], the IC50 at KRAS G12D and on KRAS WT was no more than 10 nM each time.

Regarding `CCc1c(F)ccc2cc(O)cc(-c3c(F)c4nc(OCC5(C)C[C@@H](O)CN5C)nc(N5CCOCC(C)(O)C5)c4c4cn(C)nc34)c12` (mixture of isomers) [Example 153, 4-[4-(8-ethyl-7-fluoro-3-hydroxy-1-naphthyl)-5-fluoro-2-methyl-7-[[rac-(4R)-4-hydroxy-1,2-dimethyl-pyrrolidin-2-yl]methoxy]pyrazolo[4,3-f]quinazolin-9-yl]-6-methyl-1,4-oxazepan-6-ol], the IC50 on KRAS G12D and against KRAS WT was no more than 10 nM each time. For the molecule `CCc1c(F)ccc2cc(O)cc(-c3c(C)c4nc(OC[C@@]56CCCN5C[C@H](F)C6)nc(N5CCCn6nc(C(=O)N(C)C)nc6C5)c4c4cn(C)nc34)c12` (racemic) [Example 198, 8-[4-(8-ethyl-7-fluoro-3-hydroxy-1-naphthyl)-2,5-dimethyl-7-[[rac-(2R,8S)-2-fluoro-1,2,3,5,6,7-hexahydropyrrolizin-8-yl]methoxy]pyrazolo[4,3-f]quinazolin-9-yl]-N,N-dimethyl-5,6,7,9-tetrahydro-[1,2,4]triazolo[1,5-a][1,4]diazepine-2-carboxamide], the IC50 against KRAS G12D and on KRAS WT was no more than 10 nM in each case. For `CCc1c(F)ccc2cc(O)cc(-c3c(F)c4nc(OCC5(CN6C[C@@H]7C[C@H]6CO7)CC5)nc(N5CCOCC(C)(O)C5)c4c4cn(C)nc34)c12` (mixture of isomers) [Example 226, 4-[4-(8-ethyl-7-fluoro-3-hydroxy-1-naphthyl)-5-fluoro-2-methyl-7-[[1-[[rac-(1S,4S)-2-oxa-5-azabicyclo[2.2.1]heptan-5-yl]methyl]cyclopropyl]methoxy]pyrazolo[4,3-f]quinazolin-9-yl]-6-methyl-1,4-oxazepan-6-ol], the IC50 against KRAS G12D and against KRAS WT was no more than 10 nM in each case. `C#Cc1c(F)ccc2cc(O)cc(-c3cc4nc(OC[C@@]56CCCN5C[C@H](F)C6)nc(N5CCCNCC5)c4c4cn(C)nc34)c12` (single isomer, unassigned) [Example 35] had an IC50 against KRAS G12D of 100 to 10000 nM. Moreover, on KRAS WT, the “KRAS^WT NEA” value was “D (<49% inhibition at 10 μM)”. With `C#Cc1c(F)ccc2cc(O)cc(-c3cc4nc(OC[C@@]56CCCN5C[C@H](F)C6)nc(N5CCCNCC5)c4c4cn(C)nc34)c12` (single isomer, unassigned) [Example 36], the results for the half-maximal inhibitory concentration (IC50) at KRAS G12D and on KRAS WT were no more than 10 nM and 10 to 100 nM, respectively. Regarding `Cn1cc2c(n1)c(-c1cccc3sc(N)c(C#N)c13)cc1nc(OC[C@@]34CCCN3C[C@H](F)C4)nc(N3CCCOCC3)c12` [Example 3, 2-amino-4-[2-methyl-9-(1,4-oxazepan-4-yl)-7-[[(2R,8S)-2-fluoro-1,2,3,5,6,7-hexahydropyrrolizin-8-yl]methoxy]pyrazolo[4,3-f]quinazolin-4-yl]benzothiophene-3-carbonitrile], the “KRAS^G12D NEA” value at KRAS G12D was “D (<49% inhibition at 10 μM)”. Also, the IC50 on KRAS WT is 100 to 10000 nM. For the molecule `Cn1cc2c(n1)c(-c1c(O)cccc1F)cc1nc(OC[C@@]34CCCN3C[C@H](F)C4)nc(N3CCCOCC3)c12` [Example 4, 3-fluoro-2-[2-methyl-9-(1,4-oxazepan-4-yl)-7-[[(2R,8S)-2-fluoro-1,2,3,5,6,7-hexahydropyrrolizin-8-yl]methoxy]pyrazolo[4,3-f]quinazolin-4-yl]phenol], the “KRAS^G12D NEA” value on KRAS G12D is on record as “D (<49% inhibition at 10 μM)”. For the same molecule, the “KRAS^WT NEA” value at KRAS WT is given as “D (<49% inhibition at 10 μM)”. On KRAS G12D, `Cn1cc2c(n1)c(-c1cc(O)ccc1F)cc1nc(OC[C@@]34CCCN3C[C@H](F)C4)nc(N3CCCOCC3)c12` [Example 5] had an IC50 of 100 to 10000 nM. In addition, the “KRAS^WT NEA” value at KRAS WT is on record as “D (<49% inhibition at 10 μM)”. Consider `CCc1c(F)ccc2cc(O)cc(-c3cc4nc(OCC56CCCN5CCC6)nc(N5CCCOCC5)c4c4cn(C)nc34)c12` [Example 6, 5-ethyl-6-fluoro-4-[7-(1,2,3,5,6,7-hexahydropyrrolizin-8-ylmethoxy)-2-methyl-9-(1,4-oxazepan-4-yl)pyrazolo[4,3-f]quinazolin-4-yl]naphthalen-2-ol], for which the IC50 on KRAS G12D and against KRAS WT was no more than 10 nM each time.

Turning to `CCc1c(F)ccc2cc(O)cc(-c3cc4nc(OC[C@@]56CCCN5C[C@H](F)C6)nc(N5CCOCC(C)(O)C5)c4c4cn(C)nc34)c12` (stereo partly drawn) [Example 8, 4-[4-(8-ethyl-7-fluoro-3-hydroxy-1-naphthyl)-2-methyl-7-[[(2R,8S)-2-fluoro-1,2,3,5,6,7-hexahydropyrrolizin-8-yl]methoxy]pyrazolo[4,3-f]quinazolin-9-yl]-6-methyl-1,4-oxazepan-6-ol], the IC50 on KRAS G12D and on KRAS WT was no more than 10 nM throughout. At KRAS G12D, `CCc1c(F)ccc2cc(O)cc(-c3c(F)c4nc(OCC5(CN6CC(O)C(F)(F)C6)CC5)nc(N5CCOCC(C)(O)C5)c4c4cn(C)nc34)c12` (stereo not drawn) [Example 237, 4-[7-[[1-[(3,3-difluoro-4-hydroxy-pyrrolidin-1-yl)methyl]cyclopropyl]methoxy]-4-(8-ethyl-7-fluoro-3-hydroxy-1-naphthyl)-5-fluoro-2-methyl-pyrazolo[4,3-f]quinazolin-9-yl]-6-methyl-1,4-oxazepan-6-ol] yielded an IC50 of no more than 10 nM. The same measure, in the same setting: the figure for `CCc1c(F)ccc2cc(O)cc(-c3c(F)c4nc(OC[C@@H]5CCN5C)nc(N5CCC[C@@](C)(O)C5)c4c4cn(C)nc34)c12` [Example 239, (3R)-1-[4-(8-ethyl-7-fluoro-3-hydroxy-1-naphthyl)-5-fluoro-2-methyl-7-[[(2S)-1-methylazetidin-2-yl]methoxy]pyrazolo[4,3-f]quinazolin-9-yl]-3-methyl-piperidin-3-ol] is no more than 10 nM.

In the case of `CCc1c(F)ccc2cc(O)cc(-c3c(C)c4nc(OCC5(CF)COC5)nc(N5CC6CCC(C5)N6)c4c4cn(C)nc34)c12` [Example 247, 4-[9-(3,8-diazabicyclo[3.2.1]octan-3-yl)-7-[[3-(fluoromethyl)oxetan-3-yl]methoxy]-2,5-dimethyl-pyrazolo[4,3-f]quinazolin-4-yl]-5-ethyl-6-fluoro-naphthalen-2-ol], the IC50 on KRAS G12D is no more than 10 nM.
